Our source for the Ki values is patent publication US8680275B2, “Fused heterocyclic compounds as orexin receptor modulators” (Janssen Pharmaceutica NV, priority 2009, dated 2014).

For one experiment, the target named is human orexin 1 receptor (Homo sapiens (Human), UniProt O43613). The experiment can be described thus: Human orexin 1 receptor radioligand binding ([3H]-SB674042 competition). As to conditions: CHO cells stably expressing human orexin 1 receptor; [3H]-SB674042 4 nM final; read-out: OR-1 Ki. In outline: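 CHO cells stably expressing human OX1R incubated 60 min at room temperature with [3H]-SB674042 and compounds (7 concentrations, 0.1 nM–10 μM; DMSO ≤0.1%) in PBS. Nonspecific binding defined with 10 μM of a reference urea antagonist; bound radioactivity measured by filtration and scintillation counting.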
human orexin 1 receptor, sequence (O43613 whole entry): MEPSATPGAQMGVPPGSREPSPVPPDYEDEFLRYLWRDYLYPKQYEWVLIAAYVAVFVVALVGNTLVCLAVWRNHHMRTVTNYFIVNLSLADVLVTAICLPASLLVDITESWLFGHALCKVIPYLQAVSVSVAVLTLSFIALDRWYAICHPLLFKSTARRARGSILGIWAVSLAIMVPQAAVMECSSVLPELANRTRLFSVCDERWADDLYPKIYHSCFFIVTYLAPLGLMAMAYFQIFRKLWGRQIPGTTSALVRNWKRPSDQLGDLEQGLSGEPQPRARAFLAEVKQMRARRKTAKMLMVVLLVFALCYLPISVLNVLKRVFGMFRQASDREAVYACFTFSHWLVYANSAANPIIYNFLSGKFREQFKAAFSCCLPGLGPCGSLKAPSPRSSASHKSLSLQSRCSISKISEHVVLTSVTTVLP

For the next experiment, the target named is human orexin-2 receptor (Homo sapiens (Human), UniProt O43614). The experiment can be described thus: Human orexin 2 receptor radioligand binding ([3H]-EMPA competition). The following applies: HEK293 cells stably expressing human orexin-2 receptor; [3H]-EMPA 5 nM final; read-out: OR-2 Ki. In outline: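 Competition binding on HEK293 cells stably expressing human orexin-2 receptor, using 5 nM final [3H]-EMPA in PBS, compounds 0.1 nM to 10 μM (DMSO ≤0.1%). 60 min at room temperature, then filtration and scintillation counting; nonspecific binding defined with 10 μM of a reference antagonist.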
human orexin-2 receptor, sequence (O43614 whole entry): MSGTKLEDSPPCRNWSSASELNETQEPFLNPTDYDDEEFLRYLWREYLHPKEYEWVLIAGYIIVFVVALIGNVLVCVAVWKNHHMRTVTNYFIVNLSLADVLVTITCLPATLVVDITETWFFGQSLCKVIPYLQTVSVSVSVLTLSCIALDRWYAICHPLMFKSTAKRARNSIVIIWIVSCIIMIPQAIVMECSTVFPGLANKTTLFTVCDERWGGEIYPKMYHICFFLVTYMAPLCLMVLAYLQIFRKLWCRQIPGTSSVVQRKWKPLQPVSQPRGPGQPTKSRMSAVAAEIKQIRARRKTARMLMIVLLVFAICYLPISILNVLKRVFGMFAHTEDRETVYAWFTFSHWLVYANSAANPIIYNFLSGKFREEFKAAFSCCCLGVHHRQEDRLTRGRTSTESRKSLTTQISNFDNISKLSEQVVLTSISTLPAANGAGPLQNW

With `O=C(c1ccccc1-c1ccccc1)N1CC2CN(c3nccc(-c4ccccc4)n3)C2C1` (stereo not shown) [Example 47, 3-(Biphenyl-2-ylcarbonyl)-6-(4-phenylpyrimidin-2-yl)-3,6-diazabicyclo[3.2.0]heptane], the Ki came to 206 nM on human orexin 1 receptor and 132 nM at human orexin-2 receptor.
Regarding `O=C(c1ccccc1-c1ccccc1)N1CC2CN(c3cnc4ccccc4n3)C2C1` (stereo not shown) [Example 48, 2-[3-(Biphenyl-2-ylcarbonyl)-3,6-diazabicyclo[3.2.0]hept-6-yl]quinoxaline], the Ki on human orexin 1 receptor came out at 258 nM; at human orexin-2 receptor, 179 nM.
Regarding `O=C(c1ccccc1-c1cccs1)N1CC2CN(c3cnc4ccccc4n3)C2C1` (stereo not shown) [Example 49, 2-{3-[(2-Thiophen-2-ylphenyl)carbonyl]-3,6-diazabicyclo[3.2.0]hept-6-yl}quinoxaline], the Ki at human orexin 1 receptor stood at 114 nM; at human orexin-2 receptor, 77 nM.
The like results for `O=C(c1ccccc1-c1cccs1)N1CC2CN(c3nccc(-c4ccccc4)n3)C2C1` (stereo not shown) [Example 50, 6-(4-Phenylpyrimidin-2-yl)-3-[(2-thiophen-2-ylphenyl)carbonyl]-3,6-diazabicyclo[3.2.0]heptane] were, in that order, 39 nM and 94 nM.
For `Cc1nc(C(=O)N2CC3CN(c4cnc5ccccc5n4)C3C2)c(-c2ccccc2F)s1` (stereo not shown) [Example 51, 2-(3-{[5-(2-Fluorophenyl)-2-methyl-1,3-thiazol-4-yl]carbonyl}-3,6-diazabicyclo[3.2.0]hept-6-yl)quinoxaline] the same measures were 432 nM and 501 nM.
The like results for `Cc1nc(C(=O)N2CC3CN(c4nccc(-c5ccccc5)n4)C3C2)c(-c2ccccc2F)s1` (stereo not shown) [Example 52, 3-{[5-(2-Fluorophenyl)-2-methyl-1,3-thiazol-4-yl]carbonyl}-6-(4-phenylpyrimidin-2-yl)-3,6-diazabicyclo[3.2.0]heptane] were, in that order, 104 nM and 137 nM.
With `COc1ccccc1C(=O)N1CC2CN(c3nccc(-c4ccccc4)n3)C2C1` (stereo not shown) [Example 53, 3-[(2-Methoxyphenyl)carbonyl]-6-(4-phenylpyrimidin-2-yl)-3,6-diazabicyclo[3.2.0]heptane], the Ki came out at 3700 nM at human orexin 1 receptor and 1810 nM on human orexin-2 receptor.
In the case of `COc1ccccc1C(=O)N1CC2CN(c3cnc4ccccc4n3)C2C1` (stereo not shown) [Example 54, 2-{3-[(2-Methoxyphenyl)carbonyl]-3,6-diazabicyclo[3.2.0]hept-6-yl}quinoxaline], the Ki at human orexin 1 receptor is 3450 nM; at human orexin-2 receptor it was 2420 nM.
As to `Cc1cc(C)nc(N2CC3CN(C(=O)c4ccccc4-c4cccs4)CC32)n1` (stereo not shown) [Example 57, 6-(4,6-Dimethylpyrimidin-2-yl)-3-[(2-thiophen-2-ylphenyl)carbonyl]-3,6-diazabicyclo[3.2.0]heptane], the Ki amounted to 3570 nM at human orexin 1 receptor and 29 nM on human orexin-2 receptor.
Regarding `Cc1cc(C)nc(N2CC3CN(C(=O)c4ccccc4Br)CC32)n1` (stereo not shown) [Example 58, 3-[(2-Bromophenyl)carbonyl]-6-(4,6-dimethylpyrimidin-2-yl)-3,6-diazabicyclo[3.2.0]heptane], the Ki on human orexin 1 receptor is 9650 nM; on human orexin-2 receptor, 1050 nM.
In the case of `Cc1ccnc(N2CC3CN(C(=O)c4ccccc4Br)CC32)n1` (stereo not shown) [Example 59, (2-Bromo-phenyl)-[6-(4-methyl-pyrimidin-2-yl)-3,6-diaza-bicyclo[3.2.0]hept-3-yl]-methanone], the values for the inhibition constant Ki at human orexin 1 receptor and at human orexin-2 receptor were 10000 nM and 9320 nM, respectively.
With `Cc1ccnc(N2CC3CN(C(=O)c4ccccc4-c4cccs4)CC32)n1` (stereo not shown) [Example 60, 6-(4-Methylpyrimidin-2-yl)-3-[(2-thiophen-2-ylphenyl)carbonyl]-3,6-diazabicyclo[3.2.0]heptane], the Ki on human orexin 1 receptor stood at 10000 nM; on human orexin-2 receptor it was 188 nM.
Turning to `Cc1ccnc(N2CC3CN(C(=O)c4ccccc4-c4ccccc4)CC32)n1` (stereo not shown) [Example 61, 3-(Biphenyl-2-ylcarbonyl)-6-(4-methylpyrimidin-2-yl)-3,6-diazabicyclo[3.2.0]heptane], the Ki was 10000 nM at human orexin 1 receptor and 980 nM at human orexin-2 receptor.
On to `COc1ccnc(N2CC3CN(C(=O)c4ccccc4-c4cccs4)CC32)n1` (stereo not shown) [Example 62, 6-(4-Methoxypyrimidin-2-yl)-3-[(2-thiophen-2-ylphenyl)carbonyl]-3,6-diazabicyclo[3.2.0]heptane], for which the Ki at human orexin 1 receptor turned out to be 5000 nM; on human orexin-2 receptor, 123 nM.
For `COc1ccnc(N2CC3CN(C(=O)c4ccccc4-c4ccccc4)CC32)n1` (stereo not shown) [Example 63, 3-(Biphenyl-2-ylcarbonyl)-6-(4-methoxypyrimidin-2-yl)-3,6-diazabicyclo[3.2.0]heptane] the same measures were 10000 nM and 392 nM.
In the case of `CCOc1ccc2ccccc2c1C(=O)N1CC2CN(c3nc(OC)cc(OC)n3)C2C1` (stereo not shown) [Example 64, 6-(4,6-Dimethoxypyrimidin-2-yl)-3-[(2-ethoxynaphthalen-1-yl)carbonyl]-3,6-diazabicyclo[3.2.0]heptane], the Ki on human orexin 1 receptor turned out to be 808 nM; on human orexin-2 receptor, 109 nM.
For `CCOc1ccc2ccccc2c1C(=O)N1CC2CN(c3nc(C)cc(C)n3)C2C1` (stereo not shown) [Example 65, 6-(4,6-Dimethylpyrimidin-2-yl)-3-[(2-ethoxynaphthalen-1-yl)carbonyl]-3,6-diazabicyclo[3.2.0]heptane] the same measures were 1070 nM and 42 nM.
For the molecule `Cc1cc(C)nc(N2CC3CN(C(=O)c4ccccc4-n4nccn4)CC32)n1` (stereo not shown) [Example 66, 6-(4,6-Dimethylpyrimidin-2-yl)-3-{[2-(2H-1,2,3-triazol-2-yl)phenyl]carbonyl}-3,6-diazabicyclo[3.2.0]heptane], the inhibitory constant (Ki) on human orexin 1 receptor turned out to be 9650 nM; on human orexin-2 receptor, 163 nM.
The like results for `O=C(c1ccccc1-n1nccn1)N1CC2CN(c3nccc(-c4ccccc4)n3)C2C1` (stereo not shown) [Example 67, 6-(4-Phenylpyrimidin-2-yl)-3-{[2-(2H-1,2,3-triazol-2-yl)phenyl]carbonyl}-3,6-diazabicyclo[3.2.0]heptane] were, in that order, 225 nM and 156 nM.
As for `Cc1ccc(-n2nccn2)c(C(=O)N2CC3CN(c4nc(C)cc(C)n4)C3C2)c1` (stereo not shown) [Example 68, 6-(4,6-Dimethylpyrimidin-2-yl)-3-{[5-methyl-2-(2H-1,2,3-triazol-2-yl)phenyl]carbonyl}-3,6-diazabicyclo[3.2.0]heptane], the Ki was found to be 5000 nM at human orexin 1 receptor and 192 nM on human orexin-2 receptor.
Turning to `Cc1ccc(-n2nccn2)c(C(=O)N2CC3CN(c4nccc(-c5ccccc5)n4)C3C2)c1` (stereo not shown) [Example 69], the Ki at human orexin 1 receptor came to 128 nM; on human orexin-2 receptor it was 61 nM.
Consider `O=C(c1cc(F)ccc1-n1nccn1)N1CC[C@H]2CN(c3cnnc(Cl)c3)[C@H]2C1` [Example 87, (1R,6S)-8-(6-Chloropyridazin-4-yl)-3-{[5-fluoro-2-(2H-1,2,3-triazol-2-yl)phenyl]carbonyl}-3,8-diazabicyclo[4.2.0]octane], for which the Ki at human orexin 1 receptor is at least 10000 nM; on human orexin-2 receptor it was 1400 nM.
For `Cc1cc(C)nc(N2C[C@@H]3CCN(C(=O)c4ccc(C)nc4-n4ccnn4)C[C@@H]32)n1` [Example 88, (1R,6S)-8-(4,6-Dimethylpyrimidin-2-yl)-3-{[6-methyl-2-(1H-1,2,3-triazol-1-yl)pyridin-3-yl]carbonyl}-3,8-diazabicyclo[4.2.0]octane] the same measures were 8200 nM and 234 nM.
